Results published in patent US12252524B2, “GIP/GLP1 co-agonist compounds” (Eli Lilly and Company, priority 2018, dated 2025).
Numbered stars: 1 amine (or outer) side, 2 acyl side, 3 side chain; on linkers, the order of the positions; unused ones are H or OH. Square brackets hold non-standard residues; d marks the D form. Side chains are listed from the residue outwards. Peptide text beside a SMILES is read from it. * marks the point of attachment. C20 diacid = O=C(O)CCCCCCCCCCCCCCCCCCC(=O)*; C18 diacid = O=C(O)CCCCCCCCCCCCCCCCC(=O)*; γGlu = O=C(O)[C@H](CCC(=O)[*:2])N[*:1]; AEEA = NCCOCCOCC(=O)O; Aib = CC(C)(N)C(=O)O

Experiments:
human Gcg receptor = target: T1, human Gcg receptor (Homo sapiens, UniProt P47871); assay: [125I]-Glucagon binding (SPA), human Gcg receptor; details: read-out: hGLcgR Ki, nM (SEM, n)
T1 construct: expressed in transfected cells; crude membranes
Outline: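 Crude membranes from cells expressing the receptor, prepared by hypotonic lysis in 50 mM Tris HCl pH 7.5 with protease inhibitors, homogenization and differential centrifugation, were used in a WGA-bead SPA. Binding buffer: 25 mM HEPES pH 7.4, 2.5 mM CaCl2, 1 mM MgCl2, bacitracin, Tween-20.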

human GIP receptor = target: T2, human GIP receptor (Homo sapiens, UniProt P48546); assay: [125I]-GIP binding (SPA), human GIP receptor; details: read-out: hGIPR Ki, nM (SEM, n)
T2 construct: expressed in transfected cells; crude membranes
T2 sequence (P48546 22-466): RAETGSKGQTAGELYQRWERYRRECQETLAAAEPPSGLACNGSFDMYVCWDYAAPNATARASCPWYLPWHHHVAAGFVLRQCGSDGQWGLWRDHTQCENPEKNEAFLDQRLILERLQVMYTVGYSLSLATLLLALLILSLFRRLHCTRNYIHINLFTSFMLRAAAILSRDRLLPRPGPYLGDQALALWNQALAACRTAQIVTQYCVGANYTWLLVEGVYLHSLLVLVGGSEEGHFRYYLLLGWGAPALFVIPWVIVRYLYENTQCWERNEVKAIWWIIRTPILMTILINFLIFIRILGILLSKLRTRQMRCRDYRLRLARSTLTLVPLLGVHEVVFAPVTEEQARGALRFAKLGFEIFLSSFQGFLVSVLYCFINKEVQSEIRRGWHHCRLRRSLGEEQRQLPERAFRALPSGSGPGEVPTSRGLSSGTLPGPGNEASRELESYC

[1] = target: T3, gastric inhibitory peptide receptor (GIPR) (Homo sapiens, UniProt P48546); assay: cAMP pharmacological functional assay in presence of casein, hGIPR; type: cell-based; details: HEK293 cells expressing hGIPR, 0.1% Casein, geometric mean; read-out: hGIPR cAMP Rel EC50 nM (SEM, n)
T3 sequence (P48546 22-466): T2 sequence (P48546 22-466)

[2] = target: human GLP-1 receptor (GLP-1R) (Homo sapiens, UniProt P43220); assay: cAMP pharmacological functional assay in presence of casein, hGLP-1R; type: cell-based; details: HEK293 cells expressing hGLP-1R, 0.1% Casein, geometric mean; read-out: hGLP1R cAMP Rel EC50 nM (SEM, n)
human GLP-1R = human GLP-1R (Homo sapiens, UniProt P43220); assay: [125I]-GLP-1 binding (SPA), human GLP-1 receptor; set-up: expressed in transfected cells; crude membranes; details: read-out: hGLP1R Ki, (nM) (SEM, n)
Outline: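 Crude-membrane binding assay; one membrane prep included 1 mM MgCl2 and 25 units/ml DNAse I during lysis. Assay buffer at pH 7.4 contains 0.1% (w/v) bacitracin and 0.003% (w/v) TWEEN-20. Ki is reported as geometric mean.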

T1 sequence (P47871 26-477): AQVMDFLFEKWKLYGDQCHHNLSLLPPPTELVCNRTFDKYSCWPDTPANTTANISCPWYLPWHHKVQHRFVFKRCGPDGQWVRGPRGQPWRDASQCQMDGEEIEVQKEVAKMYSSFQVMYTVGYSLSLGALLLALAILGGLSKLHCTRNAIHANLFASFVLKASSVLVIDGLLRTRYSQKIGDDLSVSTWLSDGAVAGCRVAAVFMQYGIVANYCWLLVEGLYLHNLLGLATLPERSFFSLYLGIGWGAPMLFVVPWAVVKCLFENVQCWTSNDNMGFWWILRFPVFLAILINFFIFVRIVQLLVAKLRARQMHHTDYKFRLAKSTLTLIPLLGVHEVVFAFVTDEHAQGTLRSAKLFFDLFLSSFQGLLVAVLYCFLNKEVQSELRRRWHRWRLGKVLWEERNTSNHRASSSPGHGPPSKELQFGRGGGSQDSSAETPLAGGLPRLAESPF
human GLP-1R, sequence (P43220 24-463): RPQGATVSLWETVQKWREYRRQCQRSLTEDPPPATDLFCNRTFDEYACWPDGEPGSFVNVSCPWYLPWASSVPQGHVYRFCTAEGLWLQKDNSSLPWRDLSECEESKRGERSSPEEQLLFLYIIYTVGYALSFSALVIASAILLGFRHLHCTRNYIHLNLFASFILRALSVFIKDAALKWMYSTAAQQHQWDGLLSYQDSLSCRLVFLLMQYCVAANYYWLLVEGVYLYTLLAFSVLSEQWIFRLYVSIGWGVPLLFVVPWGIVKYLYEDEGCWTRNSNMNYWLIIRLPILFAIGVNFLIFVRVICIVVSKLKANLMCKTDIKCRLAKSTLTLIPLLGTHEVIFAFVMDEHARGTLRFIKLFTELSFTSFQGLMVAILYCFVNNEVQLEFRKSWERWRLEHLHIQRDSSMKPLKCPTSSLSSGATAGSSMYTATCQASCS
human GLP-1 receptor (GLP-1R), sequence (P43220 24-463): as above

Row | Compound | Ki (human Gcg receptor) [nM] | Ki (human GIP receptor) [nM] | EC50 [1] [nM] | EC50 [2] [nM] | Ki (human GLP-1R) [nM]
1 | CC[C@H](C)[C@H](NC(=O)[C@H](CC(C)C)NC(=O)[C@H](Cc1ccc(O)cc1)NC(=O)[C@H](CCC(=O)O)NC(=O)[C@@H](NC(=O)[C@H](Cc1ccccc1)NC(=O)[C@H](C)NC(=O)[C@H](C)NC(=O)[C@H](CCC(N)=O)NC(=O)[C@H](C)NC(=O)[C@H](CCCCNC(=O)COCCOCCNC(=O)COCCOCCNC(=O)CC[C@H](NC(=O)CCCCCCCCCCCCCCCCCCC(=O)O)C(=O)O)NC(=O)[C@H](CCCCN)NC(=O)[C@H](CC(=O)O)NC(=O)[C@H](CC(C)C)NC(=O)[C@H](CC(C)C)NC(=O)[C@@H](NC(=O)[C@H](CO)NC(=O)[C@H](Cc1ccc(O)cc1)NC(=O)[C@H](CC(=O)O)NC(=O)[C@H](CO)NC(=O)[C@@H](NC(=O)[C@H](Cc1ccccc1)NC(=O)[C@@H](NC(=O)CNC(=O)[C@H](CCC(=O)O)NC(=O)C(C)(C)NC(=O)[C@@H](N)Cc1ccc(O)cc1)[C@@H](C)O)[C@@H](C)O)[C@@H](C)CC)[C@@H](C)CC)C(=O)N[C@@H](CCC(=O)O)C(=O)NCC(=O)NCC(=O)N1CCC[C@H]1C(=O)N[C@@H](CO)C(=O)N[C@@H](CO)C(=O)NCC(=O)N[C@@H](C)C(=O)N1CCC[C@H]1C(=O)N1CCC[C@H]1C(=O)N1CCC[C@H]1C(=O)N[C@@H](CO)C(N)=O [Example 253] (H-Y[Aib]EGTFTSDYSILLDKK([AEEA-AEEA-γGlu-C20 diacid])AQAAFIEYLIEGGPSSGAPPPS-NH2) | > 912 | 0.138 | 0.219 | 0.109 | 2.57
2 | CC[C@H](C)[C@H](NC(=O)[C@H](CC(C)C)NC(=O)[C@H](Cc1ccc(O)cc1)NC(=O)[C@H](CCC(=O)O)NC(=O)[C@@H](NC(=O)[C@H](Cc1ccccc1)NC(=O)[C@H](C)NC(=O)[C@H](CCC(N)=O)NC(=O)[C@H](CCC(N)=O)NC(=O)[C@H](C)NC(=O)[C@H](CCCCNC(=O)COCCOCCNC(=O)COCCOCCNC(=O)CC[C@H](NC(=O)CCCCCCCCCCCCCCCCCCC(=O)O)C(=O)O)NC(=O)[C@H](CCCCN)NC(=O)[C@H](CC(=O)O)NC(=O)[C@H](CC(C)C)NC(=O)[C@H](CC(C)C)NC(=O)[C@@H](NC(=O)[C@H](CO)NC(=O)[C@H](Cc1ccc(O)cc1)NC(=O)[C@H](CC(=O)O)NC(=O)[C@H](CO)NC(=O)[C@@H](NC(=O)[C@H](Cc1ccccc1)NC(=O)[C@@H](NC(=O)CNC(=O)[C@H](CCC(=O)O)NC(=O)C(C)(C)NC(=O)[C@@H](N)Cc1ccc(O)cc1)[C@@H](C)O)[C@@H](C)O)[C@@H](C)CC)[C@@H](C)CC)C(=O)N[C@@H](CCC(=O)O)C(=O)NCC(=O)NCC(=O)N1CCC[C@H]1C(=O)N[C@@H](CO)C(=O)N[C@@H](CO)C(=O)NCC(=O)N[C@@H](C)C(=O)N1CCC[C@H]1C(=O)N1CCC[C@H]1C(=O)N1CCC[C@H]1C(=O)N[C@@H](CO)C(N)=O [Example 254] (H-Y[Aib]EGTFTSDYSILLDKK([AEEA-AEEA-γGlu-C20 diacid])AQQAFIEYLIEGGPSSGAPPPS-NH2) | 148 | 0.108 | 0.215 | 0.0553 | 2.58
3 | CC[C@H](C)[C@H](NC(=O)[C@H](CC(C)C)NC(=O)[C@H](Cc1ccc(O)cc1)NC(=O)[C@H](CCC(=O)O)NC(=O)[C@@H](NC(=O)[C@H](Cc1ccccc1)NC(=O)[C@H](C)NC(=O)[C@H](Cc1c[nH]cn1)NC(=O)[C@H](CCC(N)=O)NC(=O)[C@H](C)NC(=O)[C@H](CCCCNC(=O)COCCOCCNC(=O)COCCOCCNC(=O)CC[C@H](NC(=O)CCCCCCCCCCCCCCCCCCC(=O)O)C(=O)O)NC(=O)[C@H](CCCCN)NC(=O)[C@H](CC(=O)O)NC(=O)[C@H](CC(C)C)NC(=O)[C@H](CC(C)C)NC(=O)[C@@H](NC(=O)[C@H](CO)NC(=O)[C@H](Cc1ccc(O)cc1)NC(=O)[C@H](CC(=O)O)NC(=O)[C@H](CO)NC(=O)[C@@H](NC(=O)[C@H](Cc1ccccc1)NC(=O)[C@@H](NC(=O)CNC(=O)[C@H](CCC(=O)O)NC(=O)C(C)(C)NC(=O)[C@@H](N)Cc1ccc(O)cc1)[C@@H](C)O)[C@@H](C)O)[C@@H](C)CC)[C@@H](C)CC)C(=O)N[C@@H](CCC(=O)O)C(=O)NCC(=O)NCC(=O)N1CCC[C@H]1C(=O)N[C@@H](CO)C(=O)N[C@@H](CO)C(=O)NCC(=O)N[C@@H](C)C(=O)N1CCC[C@H]1C(=O)N1CCC[C@H]1C(=O)N1CCC[C@H]1C(=O)N[C@@H](CO)C(N)=O [Example 255] (H-Y[Aib]EGTFTSDYSILLDKK([AEEA-AEEA-γGlu-C20 diacid])AQHAFIEYLIEGGPSSGAPPPS-NH2; N-terminus assumed) | 257 | 0.0772 | 0.102 | 0.0407 | 2.58
4 | CC[C@H](C)[C@H](NC(=O)[C@H](CC(C)C)NC(=O)[C@](C)(Cc1ccc(O)cc1)NC(=O)[C@@H](CCC(=O)O)NC(=O)[C@@H](NC(=O)[C@H](Cc1ccccc1)NC(=O)[C@H](CCC(=O)O)NC(=O)C(C)(C)NC(=O)[C@H](CCC(N)=O)NC(=O)[C@H](C)NC(=O)[C@H](CCCCNC(=O)COCCOCCNC(=O)COCCOCCNC(=O)CC[C@H](NC(=O)CCCCCCCCCCCCCCCCC(=O)O)C(=O)O)NC(=O)[C@H](CCCN)NC(=O)[C@H](CC(=O)O)NC(=O)[C@H](CC(C)C)NC(=O)[C@](C)(CC(C)C)NC(=O)[C@@H](NC(=O)[C@H](CO)NC(=O)[C@H](Cc1ccncc1)NC(=O)[C@H](CC(=O)O)NC(=O)[C@H](CO)NC(=O)[C@@H](NC(=O)[C@](C)(Cc1ccccc1F)NC(=O)[C@@H](NC(=O)CNC(=O)[C@H](CCC(=O)O)NC(=O)C(C)(C)NC(=O)[C@@H](N)Cc1ccc(O)cc1)[C@@H](C)O)[C@@H](C)O)[C@@H](C)CC)[C@@H](C)CC)C(=O)N[C@@H](CCC(=O)O)C(=O)NCC(=O)NCC(=O)N1CCC[C@H]1C(=O)N[C@@H](CO)C(=O)N[C@@H](CO)C(=O)NCC(N)=O [Example 264] | 388 | 0.015 | 0.0196 | 0.0229 | 0.412
5 | CC[C@H](C)[C@H](NC(=O)[C@H](CC(C)C)NC(=O)C(C)(Cc1ccc(O)cc1)NC(=O)[C@@H](CCC(=O)O)NC(=O)[C@@H](NC(=O)[C@H](Cc1ccccc1)NC(=O)[C@H](CCC(=O)O)NC(=O)C(C)(C)NC(=O)[C@H](CCC(N)=O)NC(=O)[C@H](C)NC(=O)[C@H](CCCCNC(=O)COCCOCCNC(=O)COCCOCCNC(=O)CC[C@H](NC(=O)CCCCCCCCCCCCCCCCC(=O)O)C(=O)O)NC(=O)[C@H](CCCN)NC(=O)[C@H](CC(=O)O)NC(=O)[C@H](CC(C)C)NC(=O)C(C)(CC(C)C)NC(=O)[C@@H](NC(=O)[C@H](CO)NC(=O)[C@H](Cc1ccncc1)NC(=O)[C@H](CC(=O)O)NC(=O)[C@H](CO)NC(=O)[C@@H](NC(=O)C(C)(Cc1ccccc1F)NC(=O)[C@@H](NC(=O)CNC(=O)[C@H](CCC(=O)O)NC(=O)C(C)(C)NC(=O)[C@@H](N)Cc1ccc(O)cc1)[C@@H](C)O)[C@@H](C)O)[C@@H](C)CC)[C@@H](C)CC)C(=O)N[C@@H](CCC(=O)O)C(=O)NCC(=O)NCC(N)=O (stereo partly drawn) [Example 265] | 567 | 0.0224 | 0.0229 | 0.0223 | 0.537
6 | CC[C@H](C)[C@H](NC(=O)[C@H](CC(C)C)NC(=O)[C@H](Cc1ccc(O)cc1)NC(=O)[C@H](CCC(=O)O)NC(=O)[C@@H](NC(=O)[C@H](Cc1ccccc1)NC(=O)[C@H](C)NC(=O)C(C)(C)NC(=O)[C@H](CCC(N)=O)NC(=O)[C@H](C)NC(=O)[C@H](CCCCNC(=O)COCCOCCNC(=O)COCCOCCNC(=O)CC[C@H](NC(=O)CCCCCCCCCCCCCCCCC(=O)O)C(=O)O)NC(=O)[C@H](CCC(=O)O)NC(=O)[C@H](CC(=O)O)NC(=O)[C@H](CC(C)C)NC(=O)[C@H](CC(C)C)NC(=O)[C@@H](NC(=O)[C@H](CO)NC(=O)[C@H](Cc1ccc(O)cc1)NC(=O)[C@H](CC(=O)O)NC(=O)[C@H](CO)NC(=O)[C@@H](NC(=O)[C@H](Cc1ccccc1)NC(=O)[C@@H](NC(=O)CNC(=O)[C@H](CCC(=O)O)NC(=O)C(C)(C)NC(=O)[C@@H](N)Cc1ccc(O)cc1)[C@@H](C)O)[C@@H](C)O)[C@@H](C)CC)[C@@H](C)CC)C(=O)N[C@@H](CCC(=O)O)C(=O)NCC(=O)NCC(=O)N1CCC[C@H]1C(=O)N[C@@H](CO)C(=O)N[C@@H](CO)C(=O)NCC(N)=O [Example 268] (H-Y[Aib]EGTFTSDYSILLDEK([AEEA-AEEA-γGlu-C18 diacid])AQ[Aib]AFIEYLIEGGPSSG-NH2) | > 1190 | 0.0814 | 0.239 | 0.0572 | 3.98
